{"source": "ChEMBL document CHEMBL5230086", "about": "“Contemporary approaches and future perspectives of antibacterial photodynamic therapy (aPDT) against methicillin-resistant Staphylococcus aureus (MRSA): A systematic review” (Eur J Med Chem, 2020)", "key": {"Staphylococcus aureus [1]": {"system": "Staphylococcus aureus", "experiment": "Photodynamic antibacterial activity against Methicillin-resistant Staphylococcus aureus assessed as reduction in bacterial growth at 0.01 % followed by photo-irradiation with 5405 J/cm^2 light for 30 min by microscopic analysis", "format": "functional", "design": "scale not given: the % may be the effect or the level left", "conditions": "0.5 h"}, "Staphylococcus aureus [2]": {"system": "Staphylococcus aureus", "experiment": "Photodynamic antibacterial activity against Methicillin-resistant Staphylococcus aureus ATCC 43300 assessed as reduction in bacterial growth at 0.01 % followed by photo-irradiation with 412 nm at 5.4 J/cm^2 light for 10 min by microscopic analysis", "format": "functional", "design": "scale not given: the % may be the effect or the level left"}, "Staphylococcus aureus [3]": {"system": "Staphylococcus aureus", "experiment": "Photodynamic antibacterial activity against Methicillin-resistant Staphylococcus aureus clinical isolate 1 assessed as reduction in bacterial growth at 0.01 % followed by photo-irradiation with 5.4 J/cm^2 light for 30 min by microscopic analysis", "format": "functional", "design": "scale not given: the % may be the effect or the level left", "conditions": "0.5 h"}, "Staphylococcus aureus [4]": {"system": "Staphylococcus aureus", "experiment": "Photodynamic antibacterial activity against Methicillin-resistant Staphylococcus aureus clinical isolate 2 assessed as reduction in bacterial growth at 0.01 % followed by photo-irradiation with 5.4 J/cm^2 light for 30 min by microscopic analysis", "format": "functional", "design": "scale not given: the % may be the effect or the level left", "conditions": "0.5 h"}, "Staphylococcus aureus [5]": {"system": "Staphylococcus aureus", "experiment": "Photodynamic antibacterial activity against Methicillin-resistant Staphylococcus aureus ATCC 43300 assessed as reduction in bacterial growth at 0.01 % followed by photo-irradiation with 450 nm at 5.4 J/cm^2 light for 10 min by microscopic analysis", "format": "functional", "design": "scale not given: the % may be the effect or the level left"}, "Staphylococcus aureus [6]": {"system": "Staphylococcus aureus", "experiment": "Photodynamic antibacterial activity against Methicillin-resistant Staphylococcus aureus assessed as reduction in bacterial colony forming unit at 8 uM followed by photo-irradiation with 30 J/cm^2 light", "format": "functional"}, "Staphylococcus aureus [7]": {"system": "Staphylococcus aureus", "experiment": "Photodynamic antibacterial activity against Methicillin-resistant Staphylococcus aureus assessed as reduction in bacterial growth followed by photo-irradiation with 25 J/cm^2 light for 15 mins by crystal violet staining assay", "format": "functional", "design": "scale not given: the % may be the effect or the level left", "conditions": "0.25 h"}, "Neutrophil": {"system": "Neutrophil", "experiment": "Cytotoxicity against C57BL/6NCr mouse Neutrophil assessed as reduction in cell viability at 20 uM followed by photo-irradiation with 20 mW/cm^2 light by tryptan blue dye based hemacytometer", "format": "toxicity"}, "Staphylococcus aureus [8]": {"system": "Staphylococcus aureus", "experiment": "Photodynamic antibacterial activity against Methicillin-resistant Staphylococcus aureus infected Balb/C mouse assessed as reduction in lymph node bacterial colony forming unit at 1.5 %,ID followed by photo-irradiation with 54 J/cm^2 light measured upto 72 hrs", "format": "functional"}, "Staphylococcus aureus [9]": {"system": "Staphylococcus aureus", "experiment": "Photodynamic antibacterial activity against Methicillin-resistant Staphylococcus aureus in bovine bone assessed as reduction in bacterial colony forming unit at 1.5 g/L followed by photo-irradiation with 20.1 J/cm^2 light for 24 hrs by fluorescence spectroscopy", "format": "functional"}, "Staphylococcus aureus [10]": {"system": "Staphylococcus aureus", "experiment": "Photodynamic antibacterial activity against Methicillin-resistant Staphylococcus aureus infected C57 mouse excision wound model assessed as fold reduction in bacterial growth at 100 microg/ml,po for 15 mins followed by photo-irradiation with 360 J/cm^2 light for 30 mins", "format": "functional", "conditions": "dose 100 µg/ml, time 45 min, 0.75 h"}, "Staphylococcus aureus [11]": {"system": "Staphylococcus aureus", "experiment": "Photodynamic antibacterial activity against Methicillin-resistant Staphylococcus aureus assessed as reduction in bacterial colony forming unit at 50 microg/ml followed by photo-irradiation with 163.8 J/cm^2 for 10 to 30 mins", "format": "functional", "conditions": "dose 50 µg/ml; time 10-30 min"}, "Staphylococcus aureus [12]": {"system": "Staphylococcus aureus", "experiment": "Photodynamic antibacterial activity against Methicillin-resistant Staphylococcus aureus assessed as reduction in bacterial growth at 250 microg/ml followed by photo-irradiation with 100 J/cm^2 light for 100 sec", "format": "functional", "design": "scale not given: the % may be the effect or the level left", "conditions": "dose 250 µg/ml, 100 s"}, "[13]": {"experiment": "Cytotoxicity against C57BL/6NCr mouse Neutrophil assessed as cell viability followed by photo-irradiation with 20 mW/cm^2 light by tryptan blue dye based hemacytometer", "format": "toxicity", "conditions": "mouse neutrophils, read-out: Activity"}, "[14]": {"experiment": "Photodynamic antibacterial activity against mix of Methicillin-resistant Staphylococcus aureus-Pseudomonas aeruginosa assessed as reduction in bacterial colony forming unit at 500 microg/ml followed by photo-irradiation with 664 nm for 400 sec", "format": "functional", "conditions": "dose 500 µg/ml, 0.1111 h"}, "Staphylococcus aureus [15]": {"system": "Staphylococcus aureus", "experiment": "Photodynamic antibacterial activity against Methicillin-resistant Staphylococcus aureus infected C57 mouse superficial wound model assessed as fold reduction in bacterial growth at 100 microg/ml,po for 15 mins followed by photo-irradiation with 360 J/cm^2 light for 30 mins", "format": "functional", "conditions": "dose 100 µg/ml, time 45 min, 0.75 h"}, "[16]": {"experiment": "Photodynamic antibacterial activity against mix of Methicillin-resistant Staphylococcus aureus-Pseudomonas aeruginosa in endotracheal tube model assessed as reduction in growth unit at 500 microg/ml followed by photo-irradiation with 108 J/cm^2 light for 12 mins", "format": "functional", "design": "scale not given: the % may be the effect or the level left", "conditions": "dose 500 µg/ml, 0.2 h"}, "[17]": {"experiment": "Photodynamic antibacterial activity against mix of Methicillin-resistant Staphylococcus aureus-Pseudomonas aeruginosa in maxillary sinus model assessed as reduction in bacterial colony forming unit at 0.03 % followed by photo-irradiation with 150 mW/cm^2 light by spectrophotometry", "format": "functional"}, "Staphylococcus aureus [18]": {"system": "Staphylococcus aureus", "experiment": "Photodynamic antibacterial activity against Methicillin-resistant Staphylococcus aureus assessed as reduction in bacterial colony forming unit at 500 microg/ml followed by photo-irradiation with 664 nm for 400 sec", "format": "functional", "conditions": "dose 500 µg/ml, 0.1111 h"}, "[19]": {"experiment": "Photodynamic antibacterial activity against mix of Methicillin-resistant Staphylococcus aureus-Pseudomonas aeruginosa assessed as reduction in bacterial colony forming unit at 300 microg/ml followed by photo-irradiation with 664 nm for 400 sec", "format": "functional", "conditions": "dose 300 µg/ml, 0.1111 h"}, "Staphylococcus aureus [20]": {"system": "Staphylococcus aureus", "experiment": "Photodynamic antibacterial activity against Methicillin-resistant Staphylococcus aureus assessed as reduction in bacterial colony forming unit at 300 microg/ml followed by photo-irradiation with 664 nm for 400 sec", "format": "functional", "conditions": "dose 300 µg/ml, 0.1111 h"}, "[21]": {"experiment": "Photodynamic antibacterial activity against mix of Methicillin-resistant Staphylococcus aureus-Pseudomonas aeruginosa in maxillary sinus model assessed as reduction in bacterial growth at 0.03 % followed by photo-irradiation with 150 mW/cm^2 light by spectrophotometry", "format": "functional", "design": "scale not given: the % may be the effect or the level left"}, "Staphylococcus aureus [22]": {"system": "Staphylococcus aureus", "experiment": "Photodynamic antibacterial activity against Methicillin-resistant Staphylococcus aureus assessed as reduction in bacterial colony forming unit at 3 uM followed by photo-irradiation with 30 J/cm^2 for 30 mins", "format": "functional", "conditions": "0.5 h"}, "Staphylococcus aureus [23]": {"system": "Staphylococcus aureus", "experiment": "Photodynamic antibacterial activity against Methicillin-resistant Staphylococcus aureus assessed as reduction in bacterial growth at 30 uM followed by photo-irradiation with violet light for 10 to 120 min", "format": "functional", "design": "scale not given: the % may be the effect or the level left", "conditions": "time 10-120 min"}, "Staphylococcus aureus [24]": {"system": "Staphylococcus aureus", "experiment": "Photodynamic antibacterial activity against Methicillin-resistant Staphylococcus aureus assessed as reduction in bacterial growth at 120 uM followed by photo-irradiation with blue light for 10 to 120 min", "format": "functional", "design": "scale not given: the % may be the effect or the level left", "conditions": "time 10-120 min"}}, "data": [{"smiles": "Cc1cc2c(cc1C)N(C[C@H](O)C[C@H](O)CO)C1NC(=O)NC(=O)C1=N2", "note": "(stereo not given in full)", "values": [{"measurement": "Activity", "setting": "Staphylococcus aureus [1]", "value": 90, "unit": "%"}, {"measurement": "Activity", "setting": "Staphylococcus aureus [2]", "value": 99, "unit": "%"}, {"measurement": "Activity", "setting": "Staphylococcus aureus [3]", "value": 98, "unit": "%"}, {"measurement": "Activity", "setting": "Staphylococcus aureus [4]", "value": 100, "unit": "%"}, {"measurement": "Activity", "setting": "Staphylococcus aureus [5]", "value": 98, "unit": "%"}]}, {"smiles": "Cc1cc(O)c2c3c1-c1c(C)cc(O)c4c1C1c5c(c(O)cc(O)c5-c5c(O)cc(O)c(c5C31)C2=O)C4=O", "note": "(stereo not given)", "values": [{"measurement": "Activity", "setting": "Staphylococcus aureus [6]", "value": ">6", "unit": "log10CFU"}, {"measurement": "Activity", "setting": "Staphylococcus aureus [7]", "value": 92.2, "unit": "%"}]}, {"smiles": "CC/N=c1/cc2sc3cc(NCC)c(C)cc3nc-2cc1C.Cl", "values": [{"measurement": "Activity", "setting": "Neutrophil", "value": "< 70", "unit": "%"}]}, {"smiles": "COc1cc(/C=C/C(=O)CC(=O)/C=C/c2ccc(O)c(OC)c2)ccc1O", "note": "[CURCUMIN]", "values": [{"measurement": "Activity", "setting": "Staphylococcus aureus [8]", "value": ">5", "unit": "log10CFU"}, {"measurement": "Activity", "setting": "Staphylococcus aureus [9]", "value": 3.6, "unit": "log10CFU"}]}, {"smiles": "CN(C)c1ccc2nc3ccc(N(C)C)cc3[s+]c2c1.[Cl-]", "note": "[METHYLENE BLUE ANHYDROUS]", "values": [{"measurement": "fold change (FC)", "setting": "Staphylococcus aureus [10]", "value": 25}, {"measurement": "Activity", "setting": "Staphylococcus aureus [11]", "value": 2.2, "unit": "log10CFU"}, {"measurement": "Activity", "setting": "Staphylococcus aureus [12]", "value": ">99", "unit": "%"}, {"measurement": "viability", "setting": "[13]", "value": "> 80", "unit": "%"}, {"measurement": "Activity", "setting": "[14]", "value": 7.39, "unit": "log10CFU"}, {"measurement": "fold change (FC)", "setting": "Staphylococcus aureus [15]", "value": 14}, {"measurement": "Activity", "setting": "[16]", "value": ">99.9", "unit": "%"}, {"measurement": "Activity", "setting": "[17]", "value": 5, "unit": "log10CFU"}, {"measurement": "Activity", "setting": "Staphylococcus aureus [18]", "value": 7.39, "unit": "log10CFU"}, {"measurement": "Activity", "setting": "[19]", "value": 6.7, "unit": "log10CFU"}, {"measurement": "Activity", "setting": "Staphylococcus aureus [20]", "value": 6.7, "unit": "log10CFU"}, {"measurement": "Activity", "setting": "[21]", "value": ">99.99", "unit": "%"}, {"measurement": "Activity", "setting": "Staphylococcus aureus [22]", "value": 7, "unit": "log10CFU"}]}, {"smiles": "Cc1cc2nc3c(=O)[nH]c(=O)nc-3n(C[C@H](O)[C@H](O)[C@H](O)COP(=O)(O)O)c2cc1C", "note": "[RIBOFLAVIN 5'-PHOSPHATE]", "values": [{"measurement": "Activity", "setting": "Staphylococcus aureus [23]", "value": 97, "unit": "%"}, {"measurement": "Activity", "setting": "Staphylococcus aureus [24]", "value": 95.2, "unit": "%"}]}]}
